From patent US12653800B2, “Small molecule inhibitors of TLR2 signaling” (University of Maryland, Baltimore, priority 2015, dated 2026)
Entries after “also recorded” stand apart in the source; their conditions may differ.

What was measured:
Solubility in water = format: physicochemical; conditions: compared with C29
TLR2/1 [1] = target: TLR2/1 (Mus musculus, UniProt Q9QUN7); test: P3C-induced inflammation in vivo in C57BL/6J mice; parameters: tissue The Jackson Laboratory; host or cells: whole animal; liver RNA and serum analysed; conditions: C29L i.p. 1.314 mM/g twice, P3C 100 μg i.p.
Method: FIG. 4. C29L inhibits TLR2/1-induced inflammation in vivo. C57BL/6J mice were pretreated i.p. with vehicle (water) or C29L (1.314 mM/g) for 1 hr. Mice received a second pretreatment i.p. with vehicle (water) or C29L (1.314 mM/g) and subsequently were challenged i.p. with PBS or P3C (100 μg) and sacrificed 1 hr or 3 hrs later. Liver RNA (A) was analyzed by qRT-PCR and serum concentrations (B) were analyzed by Multiplex (*, p≤0.05; ***, p≤0.001; ****, p≤0.0001). Panels A and B, n=6 (the combined data from two separate experiments) for each treatment group.
All animal studies were carried out with institutional approval. Female C57BL/6J mice (6-8 weeks old) were purchased from The Jackson Laboratory (Bar Harbor, ME) and (n=3 mice/group) received PBS, H2O, or C29L (in H2O) i.p. (1.314 mM/g). After 1 h, mice received a second injection of PBS, H2O, or C29L i.p. (1.314 mM/g) and were subsequently challenged i.p. with PBS or P3C (100 μg) for 1 or 3 h. Mice were bled and sera was prepared. Livers were also extracted for qRT-PCR analysis.

TNF-α-induced signaling = test: hTNF-α-induced IL-8 mRNA in HEK-TLR2 stable transfectants; format: cell-based, human; conditions: C29 10 μM or 50 μM, hTNF-α 300 ng/mL 1 hr
[2] = test system: HEK-TLR2 stable transfectants; test: LDH release cytotoxicity assay; format: cell-based, human; conditions: C29 10 μM or 50 μM
Method: FIG. 7. C29 is not cytotoxic to HEK-TLR2 stable transfectants. Cells were pretreated for 1 hr with media, vehicle (65 μM NaOH), or C29 (10 μM or 50 μM) and then stimulated with P3C (200 ng/mL), P2C (200 ng/mL), or hTNF-α (300 ng/mL) for 1 hr in the presence of media, vehicle, or C29. Supernatants of cell cultures were collected and analyzed for LDH release as a measure of cell cytotoxicity with Triton X-lysed cells serving as the positive control. LDH release is representative of 1 of 2 independent experiments carried out in duplicate.
Cellular cytotoxicity was determined by measuring lactate dehydrogenase (LDH) activity released in the media after treatment with TLR agonist or TNF-α in the presence of media, vehicle (NaOH), or C29 using the CytoTox 96 nonradioactive cytotoxicity assay (Promega, Madison, WI) and quantified by measuring wavelength absorbance at 490 nm. Treatment of cells with Triton X-100 served as the positive control.

[3] = test system: MyD88-independent pathway; test: IFN-β mRNA in murine macrophages stimulated with agonists that induce IFN-β; format: cell-based; conditions: C29 50 μM, 3 hrs
Method: FIG. 10. Examining the broader specificity of C29 for TLR2 signaling. (A, B) Total RNA was extracted from murine macrophages that had been pretreated for 1 hr with vehicle (65 μM NaOH) or C29 (50 μM) and then stimulated with P3C (50 ng/mL), P2C (100 ng/mL), zymosan (10 μg/mL), S. aureus LTA (1 μg/mL), poly(I:C) (10 μg/mL), LPS (100 ng/mL), R848 (10 μg/mL), or CpG ODN 1668 (5 μM) for 3 hrs in the presence of vehicle or C29. IL-1β and IFN-β mRNA were measured as described in FIG. 1, panel D. (C) THP-1 cells were plated in the presence of PMA (20 ng/mL) for 24 hrs and washed twice in media. Total RNA was extracted from cell cultures pretreated for 1 hr with vehicle (260 μM NaOH) or C29 (50 μM, 100 μM, or 200 μM) and then stimulated with zymosan (10 μg/mL) or S. aureus LTA (1 μg/mL) for 4 hrs in the presence of vehicle or C29. IL-1β mRNA was measured as described in FIG. 1, panel B. Quantitative real-time results represent the mean±SEM from 2 independent experiments each carried out in duplicate (*, p≤0.05; **, p≤0.01; ***, p≤0.001).
Cytokine gene expression was measured by qRT-PCR with transcript-specific primers using SYBR Green in the ABI Prism 7900 Fast Real Time PCR system (Applied Biosystems, Foster City, CA) as described (Cole L E, et al. (2006) Journal of immunology 176(11):6888-6899). […]

TLR2 = TLR2 (Homo sapiens, UniProt O60603); format: cell-based; conditions: HEK-TLR2 cells, C29 50 μM
TLR2/1 [4] = target: TLR2/1 (Homo sapiens, UniProt O60603); test: IL-1β mRNA in THP-1 cells stimulated with TLR2/1 agonists (P3C, S. aureus LTA); format: cell-based; parameters: expressed in transfected cells; conditions: C29 50, 100 or 200 μM
TLR2/1 (Homo sapiens, UniProt O60603), sequence (O60603 21-784): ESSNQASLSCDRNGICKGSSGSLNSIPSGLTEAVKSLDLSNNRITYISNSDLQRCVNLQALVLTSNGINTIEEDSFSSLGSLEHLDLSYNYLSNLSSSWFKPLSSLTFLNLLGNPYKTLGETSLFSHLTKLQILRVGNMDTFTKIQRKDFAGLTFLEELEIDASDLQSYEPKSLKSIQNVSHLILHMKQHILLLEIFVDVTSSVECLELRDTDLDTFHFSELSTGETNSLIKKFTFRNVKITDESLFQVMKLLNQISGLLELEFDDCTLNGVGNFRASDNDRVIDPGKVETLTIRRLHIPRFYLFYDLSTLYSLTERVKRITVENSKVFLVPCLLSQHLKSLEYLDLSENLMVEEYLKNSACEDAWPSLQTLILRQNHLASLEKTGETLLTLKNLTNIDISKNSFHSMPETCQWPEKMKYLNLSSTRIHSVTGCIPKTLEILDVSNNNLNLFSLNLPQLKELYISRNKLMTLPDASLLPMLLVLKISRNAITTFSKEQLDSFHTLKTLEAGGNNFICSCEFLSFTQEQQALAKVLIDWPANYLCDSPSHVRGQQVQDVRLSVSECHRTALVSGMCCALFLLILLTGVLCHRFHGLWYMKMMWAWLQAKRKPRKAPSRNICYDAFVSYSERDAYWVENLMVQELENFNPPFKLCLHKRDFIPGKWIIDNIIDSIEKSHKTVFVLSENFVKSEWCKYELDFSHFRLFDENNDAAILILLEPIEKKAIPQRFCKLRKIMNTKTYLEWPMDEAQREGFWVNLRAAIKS

TLR2, sequence (O60603 21-784 limits assumed): as the sequence (O60603 21-784) above
TLR2/1 (Mus musculus, UniProt Q9QUN7), sequence (Q9QUN7 25-784): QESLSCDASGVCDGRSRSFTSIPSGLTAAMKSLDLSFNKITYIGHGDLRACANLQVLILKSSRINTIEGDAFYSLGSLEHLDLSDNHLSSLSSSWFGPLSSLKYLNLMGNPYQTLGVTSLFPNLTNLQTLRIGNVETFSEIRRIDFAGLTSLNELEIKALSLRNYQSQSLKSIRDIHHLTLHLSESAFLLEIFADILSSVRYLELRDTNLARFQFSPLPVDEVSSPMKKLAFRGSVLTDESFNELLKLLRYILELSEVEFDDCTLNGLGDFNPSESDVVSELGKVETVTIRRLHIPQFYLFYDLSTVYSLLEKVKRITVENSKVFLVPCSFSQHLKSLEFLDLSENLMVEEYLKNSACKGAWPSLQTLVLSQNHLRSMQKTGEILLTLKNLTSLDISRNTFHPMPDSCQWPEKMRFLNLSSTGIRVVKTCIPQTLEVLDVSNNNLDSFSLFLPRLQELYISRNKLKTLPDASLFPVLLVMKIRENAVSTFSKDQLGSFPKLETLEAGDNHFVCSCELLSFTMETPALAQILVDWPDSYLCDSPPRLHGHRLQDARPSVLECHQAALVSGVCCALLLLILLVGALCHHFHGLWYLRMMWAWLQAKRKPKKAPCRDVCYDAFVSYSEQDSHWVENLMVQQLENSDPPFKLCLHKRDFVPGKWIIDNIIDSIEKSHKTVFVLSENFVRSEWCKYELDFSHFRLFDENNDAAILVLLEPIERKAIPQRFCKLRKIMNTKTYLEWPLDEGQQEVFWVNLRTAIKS

Structure (SMILES) | solubility in water (Solubility in water) | P3C-induced IL-12 p40 liver cytokine mRNA (TLR2/1 [1]; 1 or 3 hrs) | P3C-induced IL-12 p40 serum protein (TLR2/1 [1]; 1 or 3 hrs) | P3C-induced TNF-α liver cytokine mRNA (TLR2/1 [1]; 1 or 3 hrs) | P3C-induced TNF-α serum protein (TLR2/1 [1]; 1 or 3 hrs) | P3C-induced IL-12 p40 at the later time point (TLR2/1 [1]; 3 hrs) | TNF-α-induced signaling (IL-8 mRNA) (TNF-α-induced signaling) | cytotoxicity (LDH release) [2] | IFN-β mRNA (MyD88-independent pathway) [3] | live F. tularensis-induced IL-8 mRNA (TLR2; LVS MOI=10, 4 hrs, TLR2/6 agonist) | heat-killed Ps. aeruginosa (HKPA)-induced IL-8 mRNA (TLR2; MOI=50, 4 hrs) | heat-killed S. aureus (HKSA)-induced IL-8 mRNA (TLR2; MOI=50, 4 hrs) | P3C-induced IL-1β gene expression (TLR2/1 [4]; P3C 50 ng/mL, 1 h and 4 h) | LTA SA-induced IL-1β mRNA (TLR2/1 [4]; S. aureus LTA 1 μg/mL 4 hrs)
COc1cccc(C=O)c1O [Compound C29L, ortho-vanillin] | more soluble in water than C29 | significantly blocked | significantly blocked | significantly blocked | significantly blocked | significant inhibitory effect | – | – | – | – | – | – | – | –
COc1cccc(/C=N/c2cccc(C(=O)O)c2C)c1O [Compound C29] | – | – | – | – | – | – | no effect | no effect; also recorded: not cytotoxic | no significant inhibitory effect | significantly inhibited | significantly inhibited | significantly inhibited | inhibited P3C- and P2C-induced IL-1β gene expression significantly | blocked zymosan- and LTA SA-induced IL-1β mRNA dose-dependently
